pIC50: −log10 of the molar value.
Molecular target: T1, Human M4 (Homo sapiens, UniProt P08173)
T1 construct: expressed in transfected cells; host or cells: CHO-K1 (ATCC), stably co-expressing chimeric G protein Gqi5
T1 sequence (P08173 1-479): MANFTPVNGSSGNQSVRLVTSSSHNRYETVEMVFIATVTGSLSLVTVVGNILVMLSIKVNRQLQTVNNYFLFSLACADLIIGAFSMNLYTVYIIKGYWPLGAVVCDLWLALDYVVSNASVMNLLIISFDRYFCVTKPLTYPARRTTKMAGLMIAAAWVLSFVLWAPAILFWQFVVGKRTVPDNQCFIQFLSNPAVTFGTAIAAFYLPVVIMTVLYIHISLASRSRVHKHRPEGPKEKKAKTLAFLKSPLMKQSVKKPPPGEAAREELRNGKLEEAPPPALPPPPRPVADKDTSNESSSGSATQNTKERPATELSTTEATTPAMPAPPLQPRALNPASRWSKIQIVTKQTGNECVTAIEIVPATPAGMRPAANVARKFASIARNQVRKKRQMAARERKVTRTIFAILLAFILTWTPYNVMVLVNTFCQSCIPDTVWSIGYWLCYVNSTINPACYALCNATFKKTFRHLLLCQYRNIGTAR
Assay: mAChR M4 cell-based functional assay (calcium flux, antagonist mode)
Settings: for remaining activity at 30 µM: % ACh maximum at 30 μM, read-out: Emin; for pIC50: M4/Gqi5/CHO-K1 cells, concentration-dependent decrease of the EC80 acetylcholine response
Experimental: Human or rat M4 cDNA, along with the chimeric G protein Gqi5, were transfected into Chinese hamster ovary (CHO-K1) cells purchased from the American Type Culture Collection using Lipofectamine2000. M4/Gqi5/CHO cells were grown in Ham's F-12 medium containing 10% heat-inactivated fetal bovine serum (FBS), 20 mM HEPES, 500 μg/mL G418 sulfate, and 200 μg/mL Hygromycin B.
For high throughput measurement of agonist-evoked increases in intracellular calcium, CHO-K1 cells stably expressing muscarinic receptors were plated in growth medium lacking G418 and hygromycin at 15,000 cells/20 μL/well in Greiner 384-well black-walled, tissue culture (TC)-treated, clear-bottom plates (VWR). Cells were incubated overnight at 37° C. and 5% CO2. The next day, cells were washed using an ELX 405 (BioTek) with assay buffer; the final volume was then aspirated to 20 μL, Next, 20 μL of a 2.3 μM stock of Fluo-4/acetoxymethyl ester (Invitrogen, Carlsbad, Calif.), prepared as a 2.3 μM stock in DMSO, mixed in a 1:1 ratio with 10% (w/v) Pluronic F-127 and diluted in assay buffer, was added to the wells and the cell plates were incubated for 50 min at 37° C. and 5% CO2. Dye was removed by washing with the ELX 405 and the final volume was aspirated to […]. Compound master plates were formatted in a 10 point concentration-response curve (CRC) format (1:3 dilutions) in 100% DMSO with a starting concentration of 10 or 1 mM using a BRAVO liquid handler (Agilent). Test compound CRCs were then transferred to daughter plates (240 nL) using the Echo acoustic plate reformatter (Labcyte, Sunnyvale, Calif.) and then diluted into assay buffer (40 μL) to a 2× stock using a Thermo Fisher Combi (Thermo Fisher Scientific, Waltham, Mass.).
Calcium flux was measured using the Functional Drug Screening System (FDSS) 6000 or 7000 (Hamamatsu Corporation, Tokyo, Japan) as an increase in the fluorescent static ratio. Compounds were applied to cells (20 μL, 2×) using the automated system of the FDSS at 2 seconds into the protocol and the data were collected at 1 Hz. At 143 s, 10 μL of an EC20 concentration of the muscarinic receptor agonist acetylcholine was added (5×), followed by the addition of 12 μL of an EC80 concentration of acetylcholine at the 268 s time point (5×). Agonist activity was analyzed as a concentration-dependent increase in calcium mobilization upon compound addition. Positive allosteric modulator activity was analyzed as a concentration-dependent increase in the EC20 acetylcholine response. Antagonist activity was analyzed as a concentration-dependent decrease in the EC80 acetylcholine response; for the purposes of the tables herein, an […] (inhibitory concentration 50) was calculated as a concentration-dependent decrease of the response elicited by an EC80 concentration of acetylcholine. Concentration-response curves were generated using a four-parameter logistical equation in XLFit curve fitting software (IDBS, Bridgewater, N.J.) for Excel (Microsoft, Redmond, Wash.) or Prism (GraphPad Software, Inc., San Diego, Calif.) or the Dotmatics software platform (Dotmatics, Bishop's Stortford, UK).
Compounds were synthesized as described above. Activity (IC50 and Emin) was determined in the mAChR M4 cell-based functional assay as described above and the data are shown in Table 4.

remaining activity at 30 µM [%]	pIC50	Structure (SMILES)
3.92	6.62	Cc1cnn(C)c1-c1ccc(OC2CC3(CCN(CCC(C)(C)C)CC3)C2)nn1 [Compound 14, 7-(3,3-Dimethylbutyl)-2-[6-(2,4-dimethylpyrazol-3-yl)pyridazin-3-yl]oxy-7-azaspiro[3.5]nonane]
5.72	5.87	Fc1ccc(Cl)c(-c2ccc(NCC3CC4(CCN(Cc5ccccc5)CC4)C3)nn2)c1 [Compound 45, N-[(7-benzyl-7-azaspiro[3.5]nonan-2-yl)methyl]-6-(2-chloro-5-fluoro-phenyl)pyridazin-3-amine]
5.52	5.72	Fc1ccc(Cl)c(-c2ccc(NCC3CC4(CCN(Cc5ccccn5)CC4)C3)nn2)c1 [Compound 47, 6-(2-chloro-5-fluoro-phenyl)-N-[[7-(2-pyridylmethyl)-7-azaspiro[3.5]nonan-2-yl]methyl]pyridazin-3-amine]
2.76	6.96	Cc1nn(C)cc1-c1ccc(OC2CC3(CCN(CC4CC5C=CC4C5)CC3)C2)nn1 (centres unmarked) [Compound 24, 7-(5-bicyclo[2,2.1]hept-2-enylmethyl)-2-[6-(1,3-dimethylpyrazol-4-yl)pyridazin-3-yl]oxy-7-azaspiro[3.5]nonane]
4.05	5.99	Cc1nn(C)cc1-c1ccc(NC2CC3(CCN(CC(C)C(C)(C)C)CC3)C2)nn1 (centres unmarked) [Compound 4, N-[6-(1,3-dimethylpyrazol-4-yl)pyridazin-3-yl]-7-(2,3,3-trjmethylbutyl)-7-azaspiro[3.5]nonan-2-amine]
4.58	6.48	Cc1nn(C)cc1-c1ccc(NC2CC3(CCN(CC4CCSCC4)CC3)C2)nn1 [Compound 6]
23.1	< 5.00	Cc1cnn(C)c1-c1ccc(NC2CC3(CCN(CC4CCOCC4)CC3)C2)nn1 [Compound 10, N-[6-(2,4-dimethylpyrazol-3-yl)pyridazin-3-yl]-7-(tetrahydropyran-4-ylmethyl)-7-azaspiro[3.5]nonan-2-amine]
3.47	6.52	CC(C)(C)CCN1CCC2(CC1)CC(COc1ccc(-c3cc(F)ccc3Cl)nn1)C2 [Compound 60, 2-[[6-(2-Chloro-5-fluoro-phenyl)pyridazin-3-yl]oxymethyl]-7-(3,3-dimethylbutyl)-7-azaspiro[3.5]nonane]
9.19	6.11	Fc1ccc(Cl)c(-c2ccc(NCC3CC4(CCN(Cc5ccccc5F)CC4)C3)nn2)c1 [Compound 46, 6-(2-chloro-5-fluoro-phenyl)-N-[[7-[(2-fluorophenyl)methyl]-7-azaspiro[3.5]nonan-2-yl]methyl]pyridazin-3-amine]
8.05	5.57	Cc1cccnc1CN1CCC2(CC1)CC(Oc1ccc(-c3cn(C)nc3C)nn1)C2 [Compound 31, 2-[6-(1,3-dimethylpyrazol-4-yl)pyridazin-3-yl]oxy-7-[(3-methyl-2-pyridyl)methyl]-7-azaspiro[3.5]nonane]
8.3	5.56	Fc1ccc(Cl)c(-c2ccc(OCC3CC4(CCN(Cc5ccccn5)CC4)C3)nn2)c1 [Compound 66, 2-[[6-(2-chloro-5-fluoro-phenyl)pyridazin-3-yl]oxymethyl]-7-(2-pyridylmethyl)-7-azaspiro[3.5]nonane]
2.42	6.33	CC(C)(C)CCN1CCC2(CC1)CC(CNc1ccc(-c3cc(F)ccc3Cl)nn1)C2 [Compound 41, 6-(2-chloro-5-fluoro-phenyl)-N-[[7-(3,3-dimethylbutyl)-7-azaspiro[3.5]nonan-2-yl]methyl]pyridazin-3-amine]
14.8	5.11	Cc1cccnc1CN1CCC2(CC1)CC(Oc1ccc(-c3c(C)cnn3C)nn1)C2 [Compound 38, 2-[6-(2,4-dimethylpyrazol-3-yl)pyridazin-3-yl]oxy-7-[(3-methyl-2-pyridyl)methyl]-7-azaspiro[3.5]nonane]
2.94	6.12	Fc1ccc(Cl)c(-c2ccc(OC3CC4(CCN(CC5CCCCC5)CC4)C3)nn2)c1 [Compound 18, 2-[6-(2-chloro-5-fluoro-phenyl)pyridazin-3-yl]oxy-7-(cyclohexylmethyl)-7-azaspiro[3.5]nonane]
2.85	6.70	Cc1nn(C)cc1-c1ccc(OC2CC3(CCN(CCC(C)(C)C)CC3)C2)nn1 [Compound 13, 7-(3,3-Dimethylbutyl)-2-[6-(1,3-dimethylpyrazol-4-yl)pyridazin-3-yl]oxy-7-azaspiro[3.5]nonane]
9.14	5.76	Cc1cccnc1CN1CCC2(CC1)CC(Nc1ccc(-c3cn(C)nc3C)nn1)C2 [Compound 7, N-[6-(1,3-dimethyipyrazol-4-yl)pyridazin-3-yl]-7-[(3-methyl-2-pyridyl)methyl]-7-azaspiro[3.5]nonan-2-amine]
3.29	7.05	Cc1cnn(C)c1-c1ccc(NC2CC3(CCN(CCC(C)(C)C)CC3)C2)nn1 [Compound 2, 7-(3,3-Dimethylbutyl)-N-[6-(2,4-dimethylpyrazol-3-yl)pyridazin-3-yl]-7-azaspiro[3.5]nonan-2-amine]
3.47	5.94	Fc1ccc(Cl)c(-c2ccc(OC3CC4(CCN(CC5CCOCC5)CC4)C3)nn2)c1 [Compound 19, 2-[6-(2-chloro-5-fluoro-phenyl)pyridazin-3-yl]oxy-7-(tetrahydropyran-4-ylmethyl)-7-azaspiro[3.5]nonane]
3.22	6.28	Fc1ccc(Cl)c(-c2ccc(OC3CC4(CCN(CC5CCSCC5)CC4)C3)nn2)c1 [Compound 21, 2-[6-(2-chloro-5-fluoro-phenyl)pyridazin-3-yl]oxy-7-(tetrahydrothiopyran-4-ylmethyl)-7-azaspiro[3.5]nonane]
11.8	5.29	Cc1nn(C)cc1-c1ccc(NCC2CC3(CCN(Cc4ccc(F)cc4)CC3)C2)nn1 [Compound 58, 6-(1,3-dimethylpyrazol-4-yl)-N-[[7-[(4-fluorophenyl)methyl]-7-azaspiro[3.5]nonan-2-yl]methyl]pyridazin-3-amine]
17.1	5.24	Cc1nn(C)cc1-c1ccc(OC2CC3(CCN(CC4CCCOC4)CC3)C2)nn1 (centres unmarked) [Compound 28, 2-[6-(1,3-dimethylpyrazol-4-yl)pyridazin-3-yl]oxy-7-(tetrahydropyran-3-ylmethyl)-7-azaspiro[3.5]nonane]
8.66	5.57	Cc1nn(C)cc1-c1ccc(NCC2CC3(CCN(Cc4ccccc4)CC3)C2)nn1 [Compound 53, N-[(7-benzyl-7-azaspiro[3.5]nonan-2-yl)methyl]-6-(1,3-dimethylpyrazol-4-yl)pyridazin-3-amine]

From US11149022B2, “Antagonists of the muscarinic acetylcholine receptor M4” (Vanderbilt University, priority 2017, dated 2021)
